Data published in BindingDB's records for doi:10.1016/j.bmcl.2007.12.038 (St. Jude Children'S Research Hospital, 2008).

Legend:
[1] = Binding affinity to GST tagged human CFTR PDZ2 domain
[2] = Binding affinity to GST tagged human beta 2 adrenergic receptor PDZ1 domain

Row | IC50 [1] | IC50 [2] | Structure (SMILES)
1 | 160 µM | 1540 µM | CCCCC(O)c1[nH]c2cc(C)c(C(=O)O)cc2c1CCc1ccccc1 (stereo unspecified) [2-(1-hydroxypentyl)-6-methyl-3-phenethyl-1H-indole-5-carboxylic acid]
2 | 330 µM | 777 µM | Cc1cc2[nH]c(C(O)CCCC(=O)O)c(CCc3ccccc3)c2cc1C(=O)O (stereo unspecified) [2-(4-carboxy-1-hydroxybutyl)-6-methyl-3-phenethyl-1H-indole-5-carboxylic acid]
3 | 380 µM | 280 µM | CCCCCc1c(CO)c2cc(C)c(C(=O)O)cc2n1CCc1ccccc1 [3-(hydroxymethyl)-5-methyl-2-pentyl-1-phenethyl-1H-indole-6-carboxylic acid]
